Assay results: patent US5703130A, “Chalcone retinoids and methods of use of same” (priority 1996, dated 1997)

How the values were obtained:
[1] = tested on: Human promyelocytic leukemia HL-60 cells; experiment: Cell differentiation of HL-60 cells by nitroblue tetrazolium (NBT) reduction; assay type: cell-based; settings: 50% differentiation or effective concentration, read-out: NBT ED50
Method: Human promyelocytic leukemia HL-60 cells were cultured in RPMI-1640 medium supplemented by 10% heat-inactivated calf serum and 100 U/ml of penicillin plus 100 μg/ml of streptomycin. The flasks containing cells and medium were incubated in an incubator with 5% CO2 at 37° C. Log phase cells were seeded into the medium at a concentration of 1.2×10^5to 1.4×10^5 cells per ml and cultured in flasks containing 5 ml of medium. Each group consisted of three flasks. Different concentrations of chalcone-retinoids were added. At intervals following the addition of chalcone-retinoids to the cultures, a small portion of cells was removed and live cells were counted under a light microscope using a dye-exclusionmethod with trypan blue. Cell differentiation was judged in terms of morphology and nitroblue tetrazolium (NBT) reduction.
For a determination of NBT reducing activity, a portion of the chalcone-retinoid-treated cells was removed at intervals following treatment and centrifuged. After centrifugation, 0.5 ml of 0.1% NBT (containing 100 ng TPA) was added to each tube. The contents of the test tubes were then incubated for 1 hour at 37° C. Cell smears were prepared from the cell sediment and stained using the Wright-Giemsa technique. For each smear prepared, 200 cells were isolated for examination under a light microscope with an oil immersion lens. Cells stained with blue-black granules were considered NBT-positive cells. The 50% differentiation or effective concentration (ED50 or EC50) is shown in terms of molar (M) concentration of the […] tested.

cancer cells = experiment: MTT assay for inhibitory effect on cancer cells (monolayer culture); assay type: cell-based; settings: 120 h, 5 day culture, 1200 tumor cells per well, cell line not named, read-out: MTT ED50
Method: For a monolayer culture to test for the inhibitory effect of chalcone retinoids on cancer cells, 0.5 ml of trypsin solution (0.3 gm/ml) was added to the flasks for digestion. Microtiter plates (96 well) were used for the cell culture and 200 μl of cell suspension (1200 tumor cells) were placed in each well and incubated at 37° C. for 24 hours. Following the addition of the test compound, the control and treated flasks were placed in a CO2 incubator for 5 day culture. For the MTT assay, 200 μl of MTT solution (5 mg in 10 ml of phosphate buffer) plus the medium were added and incubated for another 4 hours. Following incubation, the supernatant was discarded and 200 μl of DMSO was added to each well. With a mild agitation the OD values were determined by the MR 700 Elisa at 570 nm (reference wavelength was 450 nm). The ED50 of the compound and tumor cell survival rate [formula] as percent inhibition were calculated.

[2] = tested on: human acute myeloid leukemia (AML), neuroblastoma, teratocarcinoma, melanoma, and rat rhabdomyosarcoma cells; settings: Smith et al., J. Clin. Oncol. 10 (5):839-864 (1992); cited from earlier work
[3] = Preuss-Ueberschar et al., Drug Res. 34:1305-1313 (1984); cited from earlier work
melanoma cell = settings: Jing et al. (1992); cited from earlier work

Row | EC50 [1] | IC50 (cancer cells) | SMILES | further results
1 | > 1 µM | 4 µM | CC(C)(C)c1cc(C(=O)Nc2ccc(C(=O)Nc3ccc(O)cc3)cc2)cc(C(C)(C)C)c1O [I-A, N-4-[4-(hydroxyphenylaminocarbonyl)phenyl]-3,5-di-t-butyl-4-hydroxybenzamide] | –
2 | > 1 µM | 2 µM | COc1c(C(C)(C)C)cc(C(=O)C=Cc2ccc(C(=O)Oc3ccc(NC(C)=O)cc3)cc2)cc1C(C)(C)C [I-N, 1-(3,5-di-t-butyl-4-methoxyphenyl)-3-[4-(4-acetaminophenoxycarbonyl)-phenyl]-2-propen-1-one] | –
3 | 8 µM | 6 µM | CC(=O)Nc1ccc(OC(=O)c2ccc(OC(=O)c3cc(C(C)(C)C)c(O)c(C(C)(C)C)c3)cc2)cc1 [I-Q, 4'-[(4-acetamino)phenoxycarbonylphenyl] 4-hydroxy-3,5-di-t-butyl-benzoate] | –
4 | > 10 µM | > 10 µM | CCOC(=O)c1ccc(NC(=O)c2ccc(OC(=O)c3cc(C(C)(C)C)c(O)c(C(C)(C)C)c3)cc2)cc1 [I-R, 4-(4-ethoxycarbonyl-phenylaminocarbonyl)phenyl 3,5-di-t-butyl-4-hydroxybenzoate] | –
5 | > 10 µM | 1.6 µM | CC(C)(C)c1cc(C(=O)Oc2ccc(C(=O)Nc3ccc(C(=O)O)cc3)cc2)cc(C(C)(C)C)c1O [I-S, 4-(4-carboxy-phenylaminocarbonyl)phenyl 3,5-di-t-butyl-4-hydroxybenzoate] | –

Continued, compound first:

Row | SMILES | EC50 [1] | IC50 (cancer cells) | further results
6 | CC(=O)Nc1ccc(OC(=O)c2ccc(NC(=O)c3cc(C(C)(C)C)c(O)c(C(C)(C)C)c3)cc2)cc1 [I-B, N-4-[4-(acetaminophenoxycarbonyl)phenyl]-3,5-di-t-butyl-4-hydroxybenzamide] | > 10 µM | 11 µM | –
7 | COc1c(C(C)(C)C)cc(C(=O)Nc2ccc(C(=O)Oc3ccc(NC(C)=O)cc3)cc2)cc1C(C)(C)C [I-J, N-4-[4-(acetaminophenoxycarbonyl)phenyl]-3,5-di-t-butyl-4-methoxybenzamide] | 1.2 µM | 0.92 µM | –
8 | CC1=C(/C=C/C(C)=C/C=C/C(C)=C/C(=O)O)C(C)(C)CCC1 [all-trans-retinoic acid (RA), all-trans-retinoic acid] | – | – | induces cell differentiation [2]: induces cell differentiation
9 | O=c1ccc2ccccc2o1 [coumarin] | – | – | teratogenicity [3]: not teratogenic
10 | O=c1c(-c2ccc(O)cc2)coc2cc(O)ccc12 [diadzein] | – | – | inhibition of melanoma cell growth (melanoma cell): inhibits melanoma cell growth
